Experimental data published in the supplement of paper PMC10307832.

Compound: CCOC(=O)CCNc1cc(N2CCc3ccccc3CC2)nc(-c2ccccn2)n1 [GSK-J4] + Nc1nc2[nH]cc(CCc3ccc(C(=O)N[C@@H](CCC(=O)O)C(=O)O)cc3)c2c(=O)[nH]1 [Pemetrexed] (partner 0.2 µM)
Assay: relative viability (nuclei count vs DMSO), 5 days (fraction); higher = more cells survive
Settings: first compound 5 µM
Outline: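 Lung cancer cell lines were seeded in 1536-well plates and dosed by pin tool the next day, with either a single drug or a fixed anchor-drug dose combined with five library-drug doses (not always all listed) spaced in √10 steps. Five days later, one step fixed the cells and stained their nuclei (final 0.05% Triton X-100, 1% formaldehyde, 1 ug/ml Hoechst), and nuclei were counted on 4× images. Relative viability is the nuclei count in treated wells divided by the count in vehicle wells, and each value is the median of duplicate plates.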

Row | Cell Line | relative viability
1 | HCC-44 | 0.638
2 | LK-2 | 0.329
3 | NCI-H2342 | 0.762
4 | NCI-H358 | 0.171
5 | SW 900 | 0.475
6 | NCI-H1648 | 1.02
7 | NCI-H1792 | 0.501
8 | NCI-H1395 | 0.707
9 | NCI-H1563 | 0.717
10 | NCI-H1793 | 0.684
11 | NCI-H2170 | 0.243
12 | SK-MES-1 | 0.882

Same assay, conditions: first compound 15.81 µM

Row | Cell Line | relative viability
13 | NCI-H522 | 0.608
14 | PC-14 | 0.143
15 | NCI-H1666 | 0.882
16 | EKVX | 0.418
17 | NCI-H1755 | 0.388
18 | NCI-H2023 | 0.218
19 | HCC-78 | 0.957
20 | SK-LU-1 | 0.876
21 | PC-3 [JPC-3] | 0.938
22 | LOU-NH91 | 0.346
23 | NCI-H647 | 0.184
24 | NCI-H23 | 0.568
25 | EPLC-272H | 0.295
26 | NCI-H2126 | 0.621
27 | HCC-44 | 0.668
28 | LK-2 | 0.226
29 | NCI-H2342 | 0.84
30 | NCI-H1944 | 0.48
31 | NCI-H358 | 0.171
32 | SW 900 | 0.442
33 | NCI-H1792 | 0.632
34 | NCI-H1395 | 0.764
35 | NCI-H1563 | 0.698
36 | NCI-H1793 | 0.235
37 | NCI-H2170 | 0.252
38 | SK-MES-1 | 0.808

Same assay, conditions: first compound 50 µM

Row | Cell Line | relative viability
39 | NCI-H522 | 1.1
40 | PC-14 | 0.17
41 | NCI-H1666 | 0.791
42 | EKVX | 0.315
43 | NCI-H1755 | 0.365
44 | NCI-H2023 | 0.173
45 | HCC-78 | 0.929
46 | SK-LU-1 | 0.717
47 | PC-3 [JPC-3] | 0.944
48 | LOU-NH91 | 0.441
49 | NCI-H647 | 0.205
50 | NCI-H23 | 0.598
51 | EPLC-272H | 0.3
52 | NCI-H2126 | 0.555
53 | HCC-44 | 0.625
54 | LK-2 | 0.172
55 | NCI-H2342 | 0.824
56 | NCI-H1944 | 0.586
57 | NCI-H358 | 0.188
58 | SW 900 | 0.526
59 | NCI-H1648 | 0.873
60 | NCI-H1792 | 0.777
61 | NCI-H1395 | 0.707
62 | NCI-H1563 | 0.76
63 | NCI-H1793 | 0.167
64 | NCI-H2170 | 0.273
65 | SK-MES-1 | 0.508
